According to patent US12257070B2, “Pain assessment method based on deep learning model and analysis device” (NEUROGRIN INC., priority 2019, dated 2025):

Experiments:
[1] = system: formalin-induced pain; details: FIG. 10A
Excerpt: The subject animal is a mouse.
The following experimental results are assessment results obtained by inputting an activity value of an individual cell into a neural network constructed using average calcium activity values.
FIG. 10 is divided into baseline (B), early (E), inter (I), late (L), and recovery (R) sections according to time.

[2] = system: cerebellar Bergmann glial cells; experiment: pain assessment using the activity of cerebellar Bergmann glial cells; assay type: in vivo; details: Bergmann glial cell activity image, cerebellar region; FIG. 13B
Excerpt: The researcher analyzed pain assessments based on areas of a brain other than cortical nerve cells. Pain assessment results using cerebellar Bergmann glial cells will be described below. Bergmann glial cells are a type of glial cell as described above. In this case, the deep learning model must be trained in advance with an image showing the activity of Bergmann glial cells of the cerebellum (e.g., a two-photon microscope image of a cerebellar region). The training data may be a two-photon microscope image of a cerebellar region and pain information (normal state or pain state) at the time of generating a corresponding image. The experimental results below are the results of the analysis device inputting individual cell activity values into the average value-based neural network model.
FIG. 13 is a result of assessing pain using the activity of cerebellar Bergmann glial cells. […] The assessment time for capsaicin was a total of 30 minutes, and the activity was assessed for 10 minutes at the time of administration and was further assessed for 10 minutes before and after administration. […] The reference state (Vehicle) is a state in which capsaicin is not injected. Referring to FIG. 13B, it can be seen that the pain assessment result is distinguished as a pain state for about 10 minutes after capsaicin injection. […]

[3] = system: capsaicin-induced pain; experiment: capsaicin-induced pain assessed by deep learning model from images of cortical nerve cells; assay type: in vivo, mouse; details: capsaicin pain state compared to before administration and after pain has subsided; model trained with formalin pain data; FIG. 11A
Excerpt: FIG. 11 is an analysis result for capsaicin-induced pain. FIG. 11 is a result of applying a deep learning model trained with formalin pain data to other pain causes. […] FIG. 11B is an ROC curve showing pain classification performance for FIG. 11A. It can be seen from the ROC curve that the AUC value is 0.93, which is a reliable level.

SMILES: C=O [Formalin, formalin]
- predicted pain probability (formalin pain) ([1]; formalin 5% or 1%, sections baseline, early, inter, late, recovery): appears only in E (early phase)

SMILES: COc1cc(CNC(=O)CCCC/C=C/C(C)C)ccc1O [capsaicin]
- time distinguished as a pain state after capsaicin injection [2]: about 10 minutes
- predicted pain probability [3]: higher

SMILES: CCN(CC)CC(=O)Nc1c(C)cccc1C [lidocaine]
- predicted pain probability ([1]; analgesic given in addition to a high concentration (5%) of formalin): little pain
